Reference: patent publication US20100197642A1, “SLOW RELEASE MISOPROSTOL FOR OBSTETRIC AND/OR GYNAECOLOGICAL APPLICATIONS” (priority 2007, published 2010)

Experiments:
[1] = Pharmacokinetic study of misoprostol acid (MPA) plasma levels after SR oral, sublingual or vaginal misoprostol; type: in vivo, women; conditions: 400 μg
Protocol: A study was performed with healthy women ≧18 years with a viable intrauterine pregnancy of up to 12 weeks (47-83 days) of gestation who had requested termination of pregnancy by vacuum aspiration.
After giving their informed consent, eligible women were allocated randomly to the three treatment groups using computer generated random tables and numbered, sealed, opaque envelopes opened consecutively. […] The SR misoprostol tablets were swallowed with a small amount of water. Women allocated to vaginal misoprostol treatment inserted the tablets intravaginally themselves.
The women were admitted to hospital in the morning after fasting overnight.
The blood samples were immediately cooled in a refrigerator at +6° C. for 30-60 minutes and thereafter centrifuged in a cooled centrifuge for 10 minutes at 3000 rpm. The plasma was then drawn from the blood samples and stored at below −20° C. for further analyses. […]
AUC was calculated according to the trapezoidal method, by dividing the area under the curve into trapezium segments according to the time intervals of blood sampling. […] The AUC720 was calculated by summation of the trapezium segments. Pulse, blood pressure and temperature were measured repeatedly and side-effects such as nausea, abdominal pain, skin rash or diarrhoea were recorded, as well as any analgesics given. […]

[2] = cited from earlier work

**Q.** What does the source list for `CCCCC(C)(O)C/C=C/[C@H]1[C@H](O)CC(=O)[C@@H]1CCCCCCC(=O)OC` (mixture of isomers) [misoprostol, (±) methyl 7-[3-(α-hydroxy-2-β-(4(RS)-4-hydroxy-4-methyl-trans-1-octen-1-yl)-oxycyclopent-1α-yl]heptanoate]?
**A.** cumulative AUC of MPA over time (FIG. 2) ([1]; sublingual group): did not continue to rise after 6 hours; cumulative AUC of MPA over time (FIG. 2) ([1]; vaginal group): did not continue to rise after 6 hours; time at which plasma misoprostol level peaks ([2]; 400 μg oral misoprostol): about 30 minutes; time after administration with detectable levels of MPA remaining ([2]; vaginal administration): 6 h; time to maximum plasma level ([2]; vaginal administration): 70 to 80 min
